Reference: patent publication US20160175308A1, “THERAPEUTIC AGENTS FOR MODULATING THYMIC FUNCTION AND/OR GROWTH AND/OR TREATING VARIOUS DISORDERS” (UCL BUSINESS PLC, priority 2013, published 2016)

Columns and labels:
Format in all cases: in vivo, mouse
[1] = tested on: C57/BI6N wildtype mice; experiment: Lapatinib treatment of geriatric mice: thymus size/weight; conditions: 18 month old mice, 2.5 mg/day lapatinib oral gavage 5x/week for 5 weeks vs DMSO control, n=10/group, p<0.05
[2] = tested on: C57/BI6N wildtype mice; experiment: Lapatinib treatment of geriatric mice: thymus histology and BrdU immunohistochemistry; conditions: lapatinib vs control
Experimental: Eighteen month old C57/BI6N wildtype mice used in Lapatinib studies were purchased from Charles River Laboratories (UK). All mice were housed on a 12 hour light/dark cycle, in individually ventilated cages with access to standard rodent diet (Harlan, UK) and tap water ad libitum. Mice were euthanized by intraperitoneal injection of 0.2 mL sodium pentobarbital (Euthatal, Merial Animal Health, UK).
(§1) Dox was administered ad libitum in a foil-wrapped standard drinking bottle; fresh Dox was given every 48 hours. 300 mg Lapatinib (#J62401, Alfa Aesar, USA) was prepared in 12 mL DMSO (#472301, Sigma, UK) at a final concentration of 25 mg/mL. Mice were given 2.5 mg (100 µL) Lapatinib or an equivalent dose of DMSO alone 5 times per week for 4 weeks by oral gavage. One hour prior to euthanasia all mice for subsequent histological analysis were injected with 150 μL of 10 mg/mL BrdU solution (Invitrogen, UK) to label proliferating cells.
All cell suspensions (thymus, lymph node, blood) were diluted to 1 million cells/mL for antibody staining and flow cytometry analysis. Antibodies for flow cytometry analysis were as follows: CD3-FITC (17a2, Invitrogen, UK), CD4-PE (I3t4, BD Pharmingen, UK), CD8a-Q605 (53-6.7, eBioscience, UK), CD19-A421 (6D5, Biolegend, UK), CD11b-A421 (eBioscience, UK), Ter119-A421 (TER119, eBioscience, UK), CD47-APC780 (1M7, eBioscience, UK), CD25-A660 (7D4, eBioscience, UK), Nk1.1-APC780 (PK136, eBioscience, UK), NkP46-a660 (29a1.4, eBioscience, UK). All antibodies were diluted to 2 μL/10̂6 cells in 1 mL final volume; unstained and single antibody stained controls were used to set all voltage and gate compensations. Antibody staining was for 30 minutes at 4 degrees Celsius, after which time cells were centrifuged at 1250 rpm for 5 minutes and cell pellets resuspended in 1 mL RPMI 1640. All flow cytometry analysis was performed on either an LSR2 or LSR Fortessa flow cytometry system. A minimum of 10,000 events was collected for each analysis (phenotype, T cell developmental stage, peripheral blood and lymph node cell analysis). […]

[3] = tested on: C57/BI6N wildtype mice; experiment: Lapatinib treatment of elderly mice: thymus cell counts and flow cytometry of T lymphocyte populations; conditions: n=5/group
Experimental: […] All mice were housed on a 12 hour light/dark cycle, in individually ventilated cages with access to standard rodent diet (Harlan, UK) and tap water ad libitum. Mice were euthanized by intraperitoneal injection of 0.2 mL sodium pentobarbital (Euthatal, Merial Animal Health, UK).
as §1
Thymus and lymph nodes were prepared for flow cytometry by incubation in a 2 mL solution of RPMI […] (Invitrogen, UK) containing Liberase TL (0.3 mg/mL; Roche, Germany) plus DNAse I (0.2 mg/ml, Roche, Germany) for 30 minutes at 37 degrees Celsius. Thymus and lymph node tissue was then macerated through a […] filter (BD, USA) and enzymes inactivated by further washing with 30 mL PBS (Invitrogen, UK) plus 5 mM EDTA (Sigma, UK). This single cell suspension was centrifuged for 5 minutes at 1250 rpm, the supernatant removed, and the cell pellet resuspended in 3 mL RPMI 1640 (lymph nodes) or 5 mL RPMI 1640 (thymus). Total cell counts were obtained using a Millicell automated hematocytometer. Blood cells were prepared for flow cytometry by direct blood collection from the descending aorta in a capillary Microvette tube containing EDTA (CB 300 K2E, Sarstedt, Germany), elimination of red blood cells using lysis buffer (R7757, Sigma, UK) and dilution in 30 mL RPMI 1640. Blood cells were then pelleted by centrifugation as above and resuspended in 20 mL RPMI 1640 and cell counts obtained using a Millicell automated hematocytometer.
All cell suspensions (thymus, lymph node, blood) were diluted to 1 million cells/mL for antibody staining and flow cytometry analysis. Antibodies for flow cytometry analysis were as follows: CD3-FITC (17a2, Invitrogen, UK), CD4-PE (I3t4, BD Pharmingen, UK), CD8a-Q605 (53-6.7, eBioscience, UK), CD19-A421 (6D5, Biolegend, UK), CD11b-A421 (eBioscience, UK), Ter119-A421 (TER119, eBioscience, UK), CD47-APC780 (1M7, eBioscience, UK), CD25-A660 (7D4, eBioscience, UK), Nk1.1-APC780 (PK136, eBioscience, UK), NkP46-a660 (29a1.4, eBioscience, UK). All antibodies were diluted to 2 μL/10̂6 cells in 1 mL final volume; unstained and single antibody stained controls were used to set all voltage and gate compensations. Antibody staining was for 30 minutes at 4 degrees Celsius, after which time cells were centrifuged at 1250 rpm for 5 minutes and cell pellets resuspended in 1 mL RPMI 1640. All flow cytometry analysis was performed on either an LSR2 or LSR Fortessa flow cytometry system. A minimum of 10,000 events was collected for each analysis (phenotype, T cell developmental stage, peripheral blood and lymph node cell analysis). All experiments represent at least an n=4 for each condition and all analyses were done using FlowJo software. Thymus tissue sections were prepared for BrdU immunohistochemistry by dewaxing using an automated tissue staining system (TissueTek), blocking for 1 hour at room temperature in blocking solution (PBS containing 10% fetal bovine serum (10270-106, Invitrogen, UK) plus fish skin gelatin (G7765, Sigma, UK)). A BrdU primary antibody (rat, Covance, UK) was diluted in blocking solution and slides were incubated overnight in this antibody solution at 4 degrees Celsius. Slides were then washed in PBS and an anti-rat Alexa 555 secondary antibody (Invitrogen, UK) was applied in blocking solution for 3 hours at room temperature, washed, and slides coverslipped using Mowiol mounting media.

[4] = 15-18 month old mice vs DMSO treated controls
[5] = 15 month old mice, CD4/CD8/lineage negative thymocytes, vs DMSO

CS(=O)(=O)CCNCc1ccc(-c2ccc3ncnc(Nc4ccc(OCc5cccc(F)c5)c(Cl)c4)c3c2)o1 [Lapatinib, N-[3-chloro-4-[(3-fluorophenyl)methoxy]phenyl]-6-[5-[(2-methylsulfonylethylamino)methyl]-2-furyl]quinazolin-4-amine]
thymus size / thymus weight [1]: increase thymus weight
thymus size / thymus weight ([1]; listed as lapatinib): increases thymus size
BrdU cell abundance (thymocyte proliferation) ([2]; BrdU staining, n=5/treatment type, p<0.05): statistically significant increase in thymocyte proliferation
thymus histological appearance (cortico-medullary boundaries) ([2]; H&E sections): restored thymic cortico-medullary boundaries and improved overall thymus histological appearance
thymus involution ([2]; elderly mice): reverses thymus involution
CD4 T cell production [3, 4]: trend towards increased
CD8 T cell production [3, 4]: trend towards increased
DN-T T cell production [3, 4]: trend towards increased
production of immature (double positive, DP-T) T lymphocytes [3, 4]: increases production
thymus cell abundance [3, 4]: increased thymus cell abundance
DN1 (CD44+/CD25−) immature T cell abundance [3, 5]: significantly reduced
DN2 (CD44+/CD25+) immature T cell abundance [3, 5]: significantly reduced
DN4 (CD44/CD25 negative) cell abundance [3, 5]: increased
